One experiment concerns CCRF-CEM. Kind of experiment: Cytotoxicity against human CCRF-CEM cells assessed as cell viability. It counts as functional, cell-based.
For another experiment, the system named is HeLa. Put plainly: Cytotoxicity against human HeLa cells assessed as cell viability. The experiment is classed as functional, cell-based.

Converted amounts (≈) assume the structure as drawn.

A word on the IC50: it is the concentration that inhibits the measured activity by half. Regarding `C=C1C[C@H]2C(=CC[C@H]3C(C)(C)C(=O)CC[C@]23C)[C@]2(C)CC[C@H]([C@H](C)CC/C=C(/C)C(=O)O)C12` (stereo partly specified) [ANANOSIC ACID C], the values for the IC50 with CCRF-CEM and in the experiment on HeLa were 45.2 µg/mL (≈ 99.9 µM) and 0.48 µg/mL (≈ 1.06 µM), respectively.
Regarding `C/C(=C/CC[C@@H](C)C1=C2C(C)C[C@H]3C(=CC[C@H]4C(C)(C)[C@H](O)CC[C@]34C)[C@]2(C)CC1)C(=O)O` (stereo partly specified) [ANANOSIC ACID A], the figures for the IC50 with CCRF-CEM and with HeLa were 45.4 µg/mL (≈ 99.8 µM) and 0.46 µg/mL (≈ 1.01 µM), respectively.
Turning to `C=C1C[C@H]2C(=CC[C@H]3C(C)(C)[C@H](OC(C)=O)CC[C@]23C)[C@]2(C)CC[C@H]([C@H](C)CC/C=C(/C)C(=O)O)C12` (stereo partly specified) [ANANOSIC ACID B], the IC50 amounted to 49.6 µg/mL (≈ 99.9 µM) in the experiment on CCRF-CEM and 0.54 µg/mL (≈ 1.09 µM) in the experiment on HeLa.

The values above are taken from ChEMBL document CHEMBL1151212, “Ananosic acids B and C, two new 18(13-->12)-abeo-lanostane triterpenoids from Kadsura ananosma” (J Nat Prod, 2004).
